# Source: PubChem BioAssay AID1259407 (Chemical Carcinogenesis Research Information System (CCRIS), 2018)
# Calls of active or inactive are those of the source. No rule for the calls is given here.
# System: CCRIS mutagenicity, Ames/micronucleus/aberration tests
# Experiment: CCRIS mutagenicity studies
# [1] = Test System: AMES SALMONELLA TYPHIMURIUM, Strain/Indicator: TA98, Metabolic Activation: NONE, Method: PREINCUBATION
# [2] = Test System: AMES SALMONELLA TYPHIMURIUM, Strain/Indicator: TA100, Metabolic Activation: NONE, Method: PREINCUBATION
# [3] = Test System: AMES SALMONELLA TYPHIMURIUM, Strain/Indicator: TA1535, Metabolic Activation: NONE, Method: PREINCUBATION
# [4] = Test System: AMES SALMONELLA TYPHIMURIUM, Strain/Indicator: TA1537, Metabolic Activation: NONE, Method: PREINCUBATION
# [5] = Test System: AMES SALMONELLA TYPHIMURIUM, Strain/Indicator: TA98, Metabolic Activation: NONE, Method: STANDARD PLATE
compound,measurement,setting,value
CCCCCCCCC,mutagenic call,"Test System: AMES SALMONELLA TYPHIMURIUM, Strain/Indicator: TA97, Metabolic Activation: HAMSTER, LIVER, S-9, AROCLOR 1254 (10 OR 30%), Method: PREINCUBATION",inactive; negative
same,mutagenic call,"Test System: AMES SALMONELLA TYPHIMURIUM, Strain/Indicator: TA97, Metabolic Activation: NONE, Method: PREINCUBATION",inactive; negative
same,mutagenic call,"Test System: AMES SALMONELLA TYPHIMURIUM, Strain/Indicator: TA97, Metabolic Activation: RAT, LIVER, S-9, AROCLOR 1254 (10 OR 30%), Method: PREINCUBATION",inactive; negative
same,mutagenic call,"Test System: AMES SALMONELLA TYPHIMURIUM, Strain/Indicator: TA98, Metabolic Activation: HAMSTER, LIVER, S-9, AROCLOR 1254 (10 OR 30%), Method: PREINCUBATION",inactive; negative
same,mutagenic call,[1],inactive; negative
same,mutagenic call,"Test System: AMES SALMONELLA TYPHIMURIUM, Strain/Indicator: TA98, Metabolic Activation: RAT, LIVER, S-9, AROCLOR 1254 (10 OR 30%), Method: PREINCUBATION",inactive; negative
same,mutagenic call,"Test System: AMES SALMONELLA TYPHIMURIUM, Strain/Indicator: TA100, Metabolic Activation: HAMSTER, LIVER, S-9, AROCLOR 1254 (10 OR 30%), Method: PREINCUBATION",inactive; negative
same,mutagenic call,[2],inactive; negative
same,mutagenic call,"Test System: AMES SALMONELLA TYPHIMURIUM, Strain/Indicator: TA100, Metabolic Activation: RAT, LIVER, S-9, AROCLOR 1254 (10 OR 30%), Method: PREINCUBATION",inactive; negative
same,mutagenic call,"Test System: AMES SALMONELLA TYPHIMURIUM, Strain/Indicator: TA1535, Metabolic Activation: HAMSTER, LIVER, S-9, AROCLOR 1254 (10 OR 30%), Method: PREINCUBATION",inactive; negative
same,mutagenic call,[3],inactive; negative
same,mutagenic call,"Test System: AMES SALMONELLA TYPHIMURIUM, Strain/Indicator: TA1535, Metabolic Activation: RAT, LIVER, S-9, AROCLOR 1254 (10 OR 30%), Method: PREINCUBATION",inactive; negative
same,mutagenic call,"Test System: AMES SALMONELLA TYPHIMURIUM, Strain/Indicator: TA1537, Metabolic Activation: HAMSTER, LIVER, S-9, AROCLOR 1254 (30%), Method: PREINCUBATION",inactive; negative
same,mutagenic call,[4],inactive; negative
same,mutagenic call,"Test System: AMES SALMONELLA TYPHIMURIUM, Strain/Indicator: TA1537, Metabolic Activation: RAT, LIVER, S-9, AROCLOR 1254 (30%), Method: PREINCUBATION",inactive; negative
CCN(CC)CC,mutagenic call,"Test System: AMES SALMONELLA TYPHIMURIUM, Strain/Indicator: TA98, Metabolic Activation: HAMSTER, LIVER, S-9, AROCLOR 1254 (10%), Method: PREINCUBATION",inactive; negative
same,mutagenic call,[1],inactive; negative
same,mutagenic call,"Test System: AMES SALMONELLA TYPHIMURIUM, Strain/Indicator: TA98, Metabolic Activation: RAT, LIVER, S-9, AROCLOR 1254 (10%), Method: PREINCUBATION",inactive; negative
same,mutagenic call,"Test System: AMES SALMONELLA TYPHIMURIUM, Strain/Indicator: TA100, Metabolic Activation: HAMSTER, LIVER, S-9, AROCLOR 1254 (10%), Method: PREINCUBATION",inactive; negative
same,mutagenic call,[2],inactive; negative
same,mutagenic call,"Test System: AMES SALMONELLA TYPHIMURIUM, Strain/Indicator: TA100, Metabolic Activation: RAT, LIVER, S-9, AROCLOR 1254 (10%), Method: PREINCUBATION",inactive; negative
same,mutagenic call,"Test System: AMES SALMONELLA TYPHIMURIUM, Strain/Indicator: TA1535, Metabolic Activation: HAMSTER, LIVER, S-9, AROCLOR 1254 (10%), Method: PREINCUBATION",inactive; negative
same,mutagenic call,[3],inactive; negative
same,mutagenic call,"Test System: AMES SALMONELLA TYPHIMURIUM, Strain/Indicator: TA1535, Metabolic Activation: RAT, LIVER, S-9, AROCLOR 1254 (10%), Method: PREINCUBATION",inactive; negative
same,mutagenic call,"Test System: AMES SALMONELLA TYPHIMURIUM, Strain/Indicator: TA1537, Metabolic Activation: HAMSTER, LIVER, S-9, AROCLOR 1254 (10%), Method: PREINCUBATION",inactive; negative
same,mutagenic call,[4],inactive; negative
same,mutagenic call,"Test System: AMES SALMONELLA TYPHIMURIUM, Strain/Indicator: TA1537, Metabolic Activation: RAT, LIVER, S-9, AROCLOR 1254 (10%), Method: PREINCUBATION",inactive; negative
O=C(Nc1ccccc1Cl)c1csc([N+](=O)[O-])c1,mutagenic call,[5],active; positive
same,mutagenic call,"Test System: AMES SALMONELLA TYPHIMURIUM, Strain/Indicator: TA100, Metabolic Activation: NONE, Method: STANDARD PLATE",active; positive
CC(=O)OCC(O)CO (stereo not given),mutagenic call,"End Point: IN VITRO CHROMOSOMAL ABERRATIONS, Test System: CHO CELLS, Metabolic Activation: NONE",inactive; negative
same,mutagenic call,"End Point: IN VITRO CHROMOSOMAL ABERRATIONS, Test System: CHO CELLS, Metabolic Activation: RAT, LIVER, S-9, AROCLOR 1254",inactive; negative
same,mutagenic call,"Test System: AMES SALMONELLA TYPHIMURIUM, Strain/Indicator: TA98, Metabolic Activation: HAMSTER, LIVER, S-9, AROCLOR 1254, Method: PREINCUBATION",inactive; negative
same,mutagenic call,[1],inactive; negative
same,mutagenic call,"Test System: AMES SALMONELLA TYPHIMURIUM, Strain/Indicator: TA98, Metabolic Activation: RAT, LIVER, S-9, AROCLOR 1254, Method: PREINCUBATION",inactive; negative
same,mutagenic call,"Test System: AMES SALMONELLA TYPHIMURIUM, Strain/Indicator: TA100, Metabolic Activation: HAMSTER, LIVER, S-9, AROCLOR 1254, Method: PREINCUBATION",inactive; negative
same,mutagenic call,[2],inactive; negative
same,mutagenic call,"Test System: AMES SALMONELLA TYPHIMURIUM, Strain/Indicator: TA100, Metabolic Activation: RAT, LIVER, S-9, AROCLOR 1254, Method: PREINCUBATION",inactive; negative
same,mutagenic call,"Test System: AMES SALMONELLA TYPHIMURIUM, Strain/Indicator: TA1535, Metabolic Activation: HAMSTER, LIVER, S-9, AROCLOR 1254, Method: PREINCUBATION",active; positive
same,mutagenic call,[3],active; positive
same,mutagenic call,"Test System: AMES SALMONELLA TYPHIMURIUM, Strain/Indicator: TA1535, Metabolic Activation: RAT, LIVER, S-9, AROCLOR 1254, Method: PREINCUBATION",active; positive
same,mutagenic call,"Test System: AMES SALMONELLA TYPHIMURIUM, Strain/Indicator: TA1537, Metabolic Activation: HAMSTER, LIVER, S-9, AROCLOR 1254, Method: PREINCUBATION",inactive; negative
same,mutagenic call,[4],inactive; negative
same,mutagenic call,"Test System: AMES SALMONELLA TYPHIMURIUM, Strain/Indicator: TA1537, Metabolic Activation: RAT, LIVER, S-9, AROCLOR 1254, Method: PREINCUBATION",inactive; negative
Nc1cccc2cnsc12,mutagenic call,[5],active; positive
Fc1cnc2c(c1)cc(F)c1ccccc12,mutagenic call,"Test System: AMES SALMONELLA TYPHIMURIUM, Strain/Indicator: TA100, Metabolic Activation: RAT, LIVER, S-9, PHENOBARBITAL AND 5,6-BENZOFLAVONE, Method: PREINCUBATION",inactive; negative
CCCc1cc(=O)oc2c3c(c4c(c12)OC(C)(C)C=C4)O[C@H](C)[C@@H](C)[C@H]3O,mutagenic call,"Test System: Mouse lymphoma, Strain/Indicator: L5178Y (tk+/tk-), Metabolic Activation: None, Method: Suspension/plate",inactive; negative
same,mutagenic call,"Test System: Mouse lymphoma, Strain/Indicator: L5178Y (tk+/tk-), Metabolic Activation: Rat, Liver, S-9, Aroclor 1254, Method: Suspension/plate",inactive; negative
Nc1ccc(Cc2cc(O)c(N)c(Cl)c2)cc1Cl,mutagenic call,[1],inactive; negative
same,mutagenic call,[2],inactive; negative
CCN(CC)c1ccc(C(=C2C=CC(=[N+](CC)CC)C=C2)c2ccccc2)cc1,mutagenic call,"Test System: AMES SALMONELLA TYPHIMURIUM, Strain/Indicator: TA100, Method: PREINCUBATION",active; positive
